Source: patent US20240261242A1, “METHODS OF INTRAVENOUSLY ADMINISTERING SOTALOL” (AltaThera Pharmaceuticals LLC, priority 2018, published 2024)

Assays:
[1] = cited from earlier work
[2] = example IV sotalol treatment protocols with QTc interval monitoring; format: in vivo, human
Procedure: An example sotalol treatment protocol for a patient experiencing AF and who is currently in normal sinus rhythm (which patient could have resumed normal sinus rhythm spontaneously, or by way of chemical cardioversion, or electrocardioversion) is described herein. The patient is admitted to a hospital or other facility capable of providing cardiac resuscitation and continuous electrocardiographic monitoring. The patient's creatinine clearance is determined to be 60-89 mL/min (mild renal impairment). The patient is connected to an electrocardiographic and an initial QTc is determined to be less than 450 ms. If the patient were to be administered multiple sequential oral doses, the physician would have selected an oral sotalol dosing regimen of 80 mg at a 12-hour interval. However, due to the patient's NPO status, the physician determines the patient should instead be administered an IV sotalol dosing regimen as a substitute for the selected oral dosing regimen. IV doses in an amount of 75 mg sotalol hydrochloride are administered to the patient at 12-hour interval as a substitute for oral dosing. It is noted that notwithstanding the patient's mild kidney impairment, no adjustment to the IV dosing amount or interval is made. That is, even though the patient's CrCl is lower than normal, neither the dose is adjusted lower nor the dosing interval increased to accommodate for the mild renal impairment. The 75 mg IV dose is administered to the patient over a period of 5 hours. The patient's QTc interval is measured, along with heart rate and blood pressure at selected times to ensure that the patient is tolerating the drug. […] Once it is determined that the patient/subject is capable of tolerating the sotalol, one or more subsequent doses of sotalol hydrochloride in an amount of 75 mg is administered to the subject at a 12-hour interval. The patient's QTc interval can continue to be monitored.
An example sotalol treatment protocol for a patient experiencing VT who is not currently in normal sinus rhythm is described herein. The patient is admitted to a hospital or other facility capable of providing cardiac resuscitation and continuous electrocardiographic monitoring. The patient's creatinine clearance is determined to be 10-29 mL/min (severe renal impairment). The patient is connected to an electrocardiographic and an initial QTc is determined to be less than 450 ms. If the patient were to be administered multiple sequential oral doses, the physician would have selected an oral sotalol dosing regimen of 120 mg at a 48-hour interval. However, the physician determines the patient should instead be administered an IV sotalol dosing regimen as a substitute for the selected oral dosing regimen. IV doses in an amount of 105 mg sotalol hydrochloride are administered to the patient at 48-hour interval as a substitute for oral dosing. The 105 mg IV dose is administered to the patient over a period of 5 hours. The patient's QTc interval is measured, along with heart rate and blood pressure at selected times to ensure that the patient is tolerating the drug. […] Once it is determined that the patient/subject is capable of tolerating the sotalol, one or more subsequent doses of sotalol hydrochloride in an amount of 105 mg is administered to the subject at a 48-hour interval. The patient's QTc interval can continue to be monitored.
An example sotalol treatment protocol for a patient with atrial flutter (AFL) and persistent atrial fibrillation who is not currently in normal sinus rhythm is described herein. The patient is admitted to a hospital or other facility capable of providing cardiac resuscitation and continuous electrocardiographic monitoring. The patient's creatinine clearance is determined to be ≥90 mL/min. The patient is connected to an electrocardiographic and an initial QTc is determined to be less than 450 ms. […]

[3] = cited from earlier work; remark: listed apart in the source
[4] = Example 2: 75 mg IV over 5 hours at 12-hour interval, CrCl 60-89 mL/min, AF patient in sinus rhythm
[5] = Example 5: 105 mg IV over 5 hours at 48-hour interval, CrCl 10-29 mL/min, VT patient
[6] = Example 6: 150 mg IV over 5 hours at 12-hour interval, CrCl ≥90 mL/min, AFL and persistent AF patient
[7] = Example 7: 112.5 mg IV over 5 hours at 12-hour interval, then escalated to 150 mg, CrCl 60-89 mL/min, PVC patient

Question: For CC(C)NCC(O)c1ccc(NS(C)(=O)=O)cc1.Cl (centres unmarked) [sotalol hydrochloride, d,1-N-[4-[1-hydroxy-2-[(1-methylethyl)amino]ethyl]phenyl] methane-sulfonamide monohydrochloride], which “time to steady-state plasma levels and maximum QTc prolongation” value ([1]; oral administration, twice daily (after 5-6 doses)) is on record?
Answer: The value was 3 days.

Question: And the bioavailable ([1]; oral, taken on an empty stomach)?
Answer: The bioavailable was about 100%.

Question: What about the QTc interval [2, 4] of the same molecule?
Answer: The QTc interval was at most 500 ms.

Question: What about the ΔQTc [2, 4] of the same molecule?
Answer: Its ΔQTc is “less than 20%”.

Question: What about the QTc interval [2, 5] of the same molecule?
Answer: Its QTc interval is at most 500 ms.

Question: What about the ΔQTc [2, 5] of the same molecule?
Answer: Its ΔQTc is “less than 20%”.

Question: And the QTc interval [2, 6]?
Answer: Its QTc interval is at most 500 ms.

Question: And the ΔQTc [2, 6]?
Answer: Its ΔQTc is “less than 20%”.

Question: And the QTc interval [2, 7]?
Answer: Its QTc interval is at most 500 ms.

Question: And the ΔQTc [2, 7]?
Answer: Its ΔQTc is “less than 20%”.

Question: What about the solubility [3] of the same molecule?
Answer: Its solubility is “soluble in water, propylene glycol, and ethanol”.
